Structures can show the parent of a compound that is named as a salt. No end group written: not given here.
Legend:
Male ICR mice = assay: Step-down inhibitory avoidance test, scopolamine-induced memory impairment; assay type: in vivo; settings: 1.5 mg/kg oral gavage once a day for 21 days; scopolamine 2 mg/kg i.p.; vs model group, P<0.01
Experimental: Male ICR mice, aged 4-5 weeks were used in the study.
The study was performed in step-down inhibitory avoidance equipment with dimensions 12 cm×2 cm×18 cm in each chamber (Model: YLS-3T, Shandong Yiyan Technology Co., LTD., China). The bottom of each chamber was covered with a copper grid that can be electrified. A rubber platform was placed in the right corner of each chamber.
Male ICR mice in each group were treated by oral gavage once a day for 21 days with the vehicle, Donepezil Hydrochloride (1.5 mg/kg), and the peptide […] (SEQ ID NO:2) (0.3, 10 mg/kg), respectively. Two hours after the last administration, scopolamine hydrobromide (2 mg/kg) was injected intraperitoneally to induce memory impairment.
Fifty male ICR mice were divided into 5 groups according to the average of body weight, 10 mice in each group, as detailed in Table 1. […]
Evaluation period: 24 h after the training period, the mice were placed on the rubber platform and evaluated for 5 minutes. The latency of the first jump from the platform to the copper grid was observed and counted, and the latency in seconds was analyzed to evaluate memory improvement.
All results were given as mean±SEM, and the data differences between groups were analyzed by t-test for the paired comparisons using the GraphPad Prism 8 statistical package (GraphPad Software Inc., San Diego, CA, USA). […]

AVPR1A, AVPR1B, AVPR2 = assay: Tail suspension test (TST) with vasopressin receptor inhibitors; assay type: in vivo
healthy subjects = settings: human, in vivo
Experimental: A Phase 1a/1b, randomized, placebo-controlled, crossover study with the peptide [sequence] (SEQ ID NO:2) in healthy subjects was performed. The study population included men and women in good general health.
A single ascending dose (SAD) group included four cohorts receiving 60 mg/day (cohorts SAD1 and SAD2). 180 mg/day (cohort SAD3), or 540 mg/day (cohort SAD4) of the peptide or placebo. A multiple ascending dose (MAD) group included three cohorts receiving 60 mg/day (cohort MAD1), 180 mg/day (cohort MAD2), or 540 mg/day (cohort MAD3) of the peptide or placebo for seven days. All doses were administered orally.

[1] = inhibitor given with the peptide

## COc1cc2c(cc1OC)C(=O)C(CC1CCN(Cc3ccccc3)CC1)C2 (centres unmarked) [Donepezil Hydrochloride]
Male ICR mice
  latency of the first jump from the platform (step-down): significantly longer than the model group

## Cc1nc2c([nH]1)-c1ccccc1N(C(=O)c1ccc(NC(=O)c3ccccc3-c3ccccc3)cc1)CC2 [conivaptan]
AVPR1A, AVPR1B, AVPR2; [1]
  blocking of LSSTQAQQSY activity in a tail suspension test: blocks
AVPR1A, AVPR1B, AVPR2; low doses of the inhibitor
  blocking of LSSTQAQQSY activity in a tail suspension test: blocks

## Cc1ccccc1C(=O)Nc1ccc(C(=O)N2CCCC(O)c3cc(Cl)ccc32)c(C)c1 (centres unmarked) [tolvaptan]
AVPR1A, AVPR1B, AVPR2; [1]
  blocking of LSSTQAQQSY activity in a tail suspension test: does not block

## LSSTQAQQSY
Healthy subjects
  vital signs, electrocardiography (ECG) data, and physical examinations: normal

Source: patent publication US20250059233A1, “USE OF THERAPEUTIC PEPTIDES” (Viage Therapeutics Inc., priority 2021, published 2025)
